Molecules are shown by their SMILES.

This is an account of results in patent US8669246B2, “Substituted amide compound” (Astellas Pharma Inc., priority 2009, dated 2014).

In data set [1] the target is T1, human LPA1 (Homo sapiens, UniProt Q92633).
T1 construct: expressed in transfected cells
Kind of data set: Antagonistic action on human LPA1: inhibition of LPA-stimulated increase in intracellular calcium ion concentration in human LPA1-CHO cells. The format is cell-based. The following applies: LPA 100 nM, Fluo-4/FLIPR calcium signal. The method, then: Antagonistic Action of Compound of Formula (I) on Human LPA1
The antagonistic action on a human LPA 1 was evaluated with an index of an inhibitory action on the LPA-stimulated increase in intracellular calcium ion concentration, using human LPA 1-CHO cells [cells in which human LPA1 receptors are stably expressed in CHO (dhfr gene-deficient) cell lines].
Establishment of human LPA1-CHO cells was performed based on the basic genetic engineering techniques.
The established cells were maintained by passage in a nucleic acid-free α-MEM medium (Invitrogen) containing 10% FBS, 1% penicillin/streptomycin (Invitrogen), and 100 nM methotrexate, and before experiment, the medium was replaced with a medium that had been reduced to 1% of the […] concentration, then seeded in 96-well plates to 1.5×10e^5 cells/100 μL/well, and incubated overnight.
On the day of experiment, a 0.5 μM Fluo-4 solution [a solution prepared by adding 20 mM HEPES (Sigma), […] probenecid (Nacalai Tesque), 0.05% BSA, 0.5 μM Fluo-4 AM (Dojindo Laboratories), and 0.1% Pluronic […] (Molecular Probe Co.) to a Hanks Balanced Solt Solution (Invitrogen)] was added to the cells, and Fluo-4 was loaded on the cells by incubating for 2 hours at room temperature.
After loading Fluo-4, the Fluo-4 solution was replaced with a reaction solution [a solution obtained by adding 20 mM HEPES, […] probenecid, and 0.05% BSA to a Hanks Balanced Solt Solution], and then measurement was performed using a device for measuring an intracellular calcium concentration (FLIPR tetra, Molecular Devices Inc.).
A reaction solution in which the compound of the formula (I) (with a final concentration of 0.1 nM to 10 μM) had been dissolved was added to each of the wells, the signals were measured over time for 4 minutes, then a reaction solution in which LPA (final concentration 100 nM) had been dissolved was added thereto, and the signals were measured over time for 2 minutes. The difference between the maximum and minimum response during one minute from addition of LPA was calculated. The inhibitory activity was calculated, with a response when LPA only (not including the compound) was added was taken as 0% inhibition, and a response when a reaction solution not including both of the compound and LPA was added was taken as 100% inhibition. Then the 50% inhibitory concentration was calculated as an IC50 value (nM).
Human LPA1-CHO cells used in the present test were the cells with the same sequence as described in the pamphlet of International Publication WO 99/19513 were used. Further, Ex represents Example No. as denoted below.

The nature of data set [2]: Estimation of concentration in plasma after oral administration in rats using ex vivo bioassay method. The following applies: male, Wistar, rat, 2 hours after oral administration, estimated by ex vivo bioassay from standard curve. The method, then: Estimation of Concentration in Plasma (2 Hours after Oral Administration) after Administration of Compound of Formula (I) in Rats Using Ex Vivo Bioassay Method
The concentration in the plasma after administration of the compound of the formula (I) in rats was estimated according to a bioassay method. That is, test compounds were orally administered to male Wistar rats (Charles River, 6-week old, and fasted), and after a certain period of time, blood was collected from the ophthalmic basilar plexus to give plasma. The compound was extracted from the plasma, and the extracted compound was dissolved in a certain amount of DMSO. Further, for the standard curve, the plasma in which the compounds at various concentrations had been dissolved was prepared separately, and the same extraction procedure was conducted.
The inhibitory action on the LPA-stimulated increase in the intracellular calcium ion concentration in LPA1-expressing cells in the DMSO extract was measured, and the plasma concentration in the individual after administration was estimated from the standard curve.

In data set [3] the test system is LPA-induced increase in urethral pressure. Kind of data set: Inhibitory action on LPA-induced increase in urethral pressure in rats under anesthesia. The following applies: Rattus norvegicus, 5 min; 0.1 mg/kg intravenous, LPA (1-oleoyl) 3 mg/kg iv after 5 minutes, anesthetized rats, vs solvent; read-out: Inhibitory rate. The format is in vivo, rat (male Wistar). As for the experimental part: Inhibitory Action of Compound of Formula (I) on LPA-Induced Increase in Urethral Pressure in Rats Under Anesthesia (with Intravenous Administration at 0.1 mg/kg) Male Wistar rats (Charles River, 9- to 12-week old) were anesthetized with urethane (1.2 g/kg ip), and held in the supine position on an operating table kept at 37° C. The lower abdominal portion was midline-incised and the bladder was thus exposed. A small portion of the bladder apex was incised, a microchip pressure transducer (Millar) was inserted antegrade, and then placed in the urethra, and the urethral pressure was recorded continuously. In addition, a cannula for administration of a drug was placed into the femoral vein. After about 1 hour of stabilization, the compound of formula (I) (0.1 mg/kg) was administered intravenously. After 5 minutes, LPA (1-oleoyl) was administered intravenously at 3 mg/kg, and the changes in the urethral pressure were recorded. The inhibitory rates (%) of the compound of the formula (I) on the LPA-stimulated increase in the urethral pressure compared with those after administration of the solvent of the compound of the formula (I) were recorded.

T1 sequence (Q92633 whole entry): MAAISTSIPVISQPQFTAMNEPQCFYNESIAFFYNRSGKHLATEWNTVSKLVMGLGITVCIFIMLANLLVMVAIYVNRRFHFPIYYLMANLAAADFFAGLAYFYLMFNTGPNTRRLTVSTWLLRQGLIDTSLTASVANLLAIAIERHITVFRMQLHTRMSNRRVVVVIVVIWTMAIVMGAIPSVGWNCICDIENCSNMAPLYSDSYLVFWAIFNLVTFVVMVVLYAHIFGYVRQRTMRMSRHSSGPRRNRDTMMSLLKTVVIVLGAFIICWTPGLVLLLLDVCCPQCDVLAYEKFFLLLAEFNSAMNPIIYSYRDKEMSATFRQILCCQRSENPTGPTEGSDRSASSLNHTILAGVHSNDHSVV

A word on the IC50: it is the midpoint of a concentration-inhibition curve. With `COc1ccc(C2(C(=O)N(CCCc3ccccc3)Cc3nc(C(=O)NS(=O)(=O)N(C)C)c(C)s3)CC2)cc1` [Example 56], the IC50 in data set [1] was 29 nM. The concentration at 2 h in data set [2] is 1800 nM.

`COc1cc(C(=O)N(CCCc2ccccc2)Cc2nc(C(=O)NS(=O)(=O)N(CCO)CCO)c(C)s2)cc(OC)c1C` [Example 171]: the concentration at 2 h in data set [2] is 2200 nM.

In the case of `COc1ccc(C(O)C(=O)N(CCCc2ccccc2)Cc2nc(C(=O)NS(=O)(=O)N(C)C)c(C)s2)c(F)c1` (centres unmarked) [Example 27], the half-maximal inhibitory concentration (IC50) in data set [1] was 14 nM. The concentration at 2 h in data set [2] is 6500 nM.

On to `COc1cc(C(=O)N(CCCc2ccccc2)Cc2nc(C(=O)NS(=O)(=O)N(CCO)CCF)cs2)cc(OC)c1C` [Example 22, 2-{[(3,5-dimethoxy-4-methylbenzoyl)(3-phenylpropyl)amino]methyl}-N-{[(2-fluoroethyl)(2-hydroxyethyl)amino]sulfonyl}-1,3-thiazole-4-carboxamide], for which, in data set [1], the IC50 was 24 nM. In addition, in data set [2], the concentration at 2 h was 1300 nM.

Consider `COc1cc(C(=O)N(CCCc2ccccc2)Cc2nc(C(=O)NS(=O)(=O)N(C)CCF)c(C)s2)cc(OC)c1C` [Example 100], for which the concentration at 2 h in data set [2] was 6700 nM.

`COc1cc(C(=O)N(CCCc2ccccc2)Cc2nc(C(=O)N(C)S(N)(=O)=O)cs2)cc(OC)c1C` [Example 9, N-(aminosulfonyl)-2-{[(3,5-dimethoxy-4-methylbenzoyl)(3-phenylpropyl)amino]methyl}-N-methyl-1,3-thiazole-4-carboxamide]: the inhibition in vivo at 0.1 mg/kg in data set [3] was found to be 28%. In data set [2], the concentration at 2 h was 8300 nM.

As usually defined, the melting point is the temperature of the solid-liquid transition. Regarding `COc1cc(OC)cc(C(=O)N(CCCc2ccccc2)Cc2nc(C(=O)NS(C)(=O)=O)c(Cl)s2)c1` [Example 145], the melting point lay within 113 to 114 °C. Further, the concentration for half-maximal inhibition (IC50) in data set [1] amounted to 23 nM. Also, the inhibition in vivo at 0.1 mg/kg in data set [3] amounted to 16%. Moreover, the concentration at 2 h in data set [2] is 5600 nM.

For the compound `CNS(=O)(=O)NC(=O)c1nc(CN(CCCc2ccccc2)C(=O)c2cc(OC)c(C3CC3)c(OC)c2)sc1C` [Example 156], the IC50 in data set [1] is 15 nM. The concentration at 2 h in data set [2] was 2100 nM.

`COC(=O)N(C)S(=O)(=O)NC(=O)c1csc(CN(CCCc2ccccc2)C(=O)c2cc(OC)c(C)c(OC)c2)n1` [Example 89] came in with a melting point of 135 to 137 °C. Further, the IC50 in data set [1] came out at 17 nM. Besides, the concentration at 2 h in data set [2] was 2400 nM.

`CCN(CCO)S(=O)(=O)NC(=O)c1csc(CN(CCCc2ccccc2)C(=O)c2cc(OC)c(C)c(OC)c2)n1` [Example 170] returned a melting point of 127 to 129 °C. The IC50 in data set [1] was 34 nM. Also, the concentration at 2 h in data set [2] is 1800 nM.

Regarding `COc1ccc(CC(=O)N(CCCc2ccccc2)Cc2nc(C(=O)NS(=O)(=O)N(C)C)c(C)s2)c(OC)c1` [Example 126], the melting point fell in the range of 132 to 135 °C. Besides, the IC50 in data set [1] was 20 nM. The concentration at 2 h in data set [2] is 8900 nM.

On to `CONS(=O)(=O)NC(=O)c1nc(CN(CCCc2ccccc2)C(=O)c2cc(OC)cc(OC)c2)sc1C` [Example 134], for which the IC50 in data set [1] was determined as 25 nM. Besides, the concentration at 2 h in data set [2] is 1400 nM.

With `COc1ccc(C2(C(=O)N(CCCc3cccc(F)c3)Cc3nc(C(=O)NS(=O)(=O)N(C)C)c(C)s3)CC2)nc1` [Example 208], the melting point was 114 to 115 °C. For the same compound, the half-maximal inhibitory concentration (IC50) in data set [1] is 40 nM. In addition, the inhibition in vivo at 0.1 mg/kg in data set [3] was 14%.

`COc1cc(C(=O)N(CCCc2ccccc2)Cc2nc(C(=O)NS(N)(=O)=O)cs2)cc(OC)c1C1CC1` [Example 131]: the melting point was in the range of 147 to 149 °C. For the same compound, in data set [1], the IC50 turned out to be 7.2 nM. Further, the inhibition in vivo at 0.1 mg/kg in data set [3] came out at 38%.

Compound `COc1ccc([C@@H](O)C(=O)N(CCCc2ccccc2)Cc2nc(C(=O)NS(C)(=O)=O)c(C)s2)c(F)c1` [Example 277] gave a melting point of 121 to 123 °C. In addition, the IC50 in data set [1] stood at 12 nM. Further, in data set [3], the inhibition in vivo at 0.1 mg/kg stood at 42%.

`CCc1c(OC)cc(C(=O)N(CCCc2ccccc2)Cc2nc(C(=O)NS(=O)(=O)NC)c(C)s2)cc1OC` [Example 153] displayed a melting point of 162 to 164 °C. The IC50 in data set [1] worked out at 21 nM. The inhibition in vivo at 0.1 mg/kg in data set [3] amounted to 21%. Besides, in data set [2], the concentration at 2 h was 5200 nM.

`COc1ccc(C(O)C(=O)N(CCCc2ccccc2)Cc2nc(C(=O)NS(N)(=O)=O)c(C)s2)cc1` (centres unmarked) [Example 176] registered a melting point of 120 to 121 °C. In addition, in data set [1], the half-maximal inhibitory concentration (IC50) amounted to 24 nM. Besides, the concentration at 2 h in data set [2] was 4500 nM.

`CCNS(=O)(=O)NC(=O)c1csc(CN(CCCc2ccccc2)C(=O)c2cc(OC)c(C)c(OC)c2)n1` [Example 71]: the melting point fell in the range of 143 to 144 °C. In addition, in data set [1], the concentration for half-maximal inhibition (IC50) came out at 16 nM. Further, the inhibition in vivo at 0.1 mg/kg in data set [3] amounted to 18%. The concentration at 2 h in data set [2] was 2100 nM.
